In patent US20250276078A1, “Camptothecin Derivative And Ligand-drug Conjugate Thereof” (Baili-Bio (Chengdu) Pharmaceutical Co., Ltd., priority 2020, published 2025):
Where two headings read alike, the source gives them in different places.

What was measured:
[1] = test system: A431; assay: Cell activity test of camptothecin chiral derivatives (MTS); format: cell-based
Description: (§1) Cell-based in vitro experiments are used to determine cell survival, cytotoxicity and programmed cell death induced by camptothecin drugs disclosed in the present invention.
(§2) The in vitro efficacy of camptothecin was determined by cell proliferation test. CellTiter 96® Aqueous One Solution Cell Proliferation Assay is commercially available (Promega Corp., Madison, WI). CellTiter96® Aqueous One Solution Cell Proliferation Assay (a) is a test reagent that can be used to measure the number of viable cells from cell proliferation and cytotoxicity tests by colorimetric assay. The reagent contains a new tetrazolium compound [3-(4, 5-dimethylthiazol-2-yl)-5-(3-carboxymethoxyphenyl)-2-(4-sulfophenyl)-2h-Tetrazolium, inner salt; MTS] and an electron coupling agent (phenazine ethosulfate; PES). PES has enhanced chemical stability, which allows it to be mixed with MTS to form stable solutions. MTS (Owen's reagent) is reduced by cellular organisms into a variety of colored methylate products, which can be dissolved directly in the medium. This transformation is most likely accomplished with the help of NADPH or NADH produced by dehydrogenase in metabolically active cells. For detection, appropriate amount of CellTiter96® Aqueous One Solution Reagent is added directly into the medium of culture plate hole, incubated for 1-4 hours, and the absorbance value of 490 nm is read with enzyme label instrument.
(§3) The amount of methylate detected at 490 nm is proportional to the number of live cells in the culture. Due to the dissolubility of the methyls of MTS in tissue medium, CellTiter 96® Aqueous One Solution is performed with fewer steps than the MTT or INT methods.
(§4) The 96-well plates were uniformly inoculated with appropriate cell density and incubated at 37° C. in carbon dioxide incubator. 24 hours later, the cells were confirmed to be normal under the microscope, and camptothecin drugs were administered. Camptothecin drug was diluted in the medium (initial concentration was 1 uM, 7 times diluted, with 8 concentration points. The last two columns were control group (i.e., cell+medium, no drug treatment) and blank group (i.e., cell-free, only containing medium, for background subtraction). After fully mixing the drug, the drug was added into the corresponding cell hole and incubated at 37° C. in a carbon dioxide incubator for 3 days. After 3 days, 20 ul MTS (Promegm, G3581) were added to each well for 2 h, and a machine reader (from Molecular Device, model: SpectraMAX190) took readings at 490 nM. By detecting the activity of dehydrogenase in mitochondria, IC50 was calculated to evaluate the inhibitory effect of camptothecin on cell proliferation. The corresponding test results of camptothecin chiral derivative IC50 (nM) were as follows: PGP-99 T2

[2] = test system: SW620; assay: as above; format: cell-based
Description: as §1, §2, §3, §4

[3] = test system: SK-BR-3; assay: as above; format: cell-based
Description: as §1, §2, §3, §4

[4] = test system: BxPc-3; assay: as above; format: cell-based
Description: as §1, §2, §3, §4

[5] = Log P value test (partition coefficient in n-octane (oil) and water); format: physicochemical
From the text: The log P values are closely related to water solubility, membrane permeability, in vivo ADME process and affinity between the compound and the receptor, which play a key role in the process of the compound's penetration through the biofilm. The log P value was obtained by testing the partition coefficient of camptothecin drug in n-octane (oil) and water, the results are shown as follows: […]

[6] = test system: MDA-MB-468; assay: Cell activity test of camptothecin chiral derivatives (MTS); format: cell-based
Description: as §1
as §2, with “The reagent contains a new tetrazolium compound [3-(4, 5-dimethylthiazol-2-yl)-5-(3-carboxymethoxyphenyl)-2-(4-sulfophenyl)-2h-Tetrazolium, inner salt; MTS] and an electron coupling agent (phenazine ethosulfate; PES).” left out
as §3
as §4, with “24 hours later, the cells were confirmed to be normal under the microscope, and camptothecin drugs were administered.” left out, “proliferation.” for “proliferation. The corresponding test results of camptothecin chiral derivative IC50 (nM) were as follows: PGP-99 T2”

[7] = Homo sapiens, A-431, 72 h, A431, 3 days, read-out: IC50
[8] = Homo sapiens, SW-620, 72 h, SW620, 3 days, read-out: IC50
[9] = Homo sapiens, 72 h, SK-BR-3, 3 days, read-out: IC50
[10] = Homo sapiens, 72 h, BxPc-3, 3 days, read-out: IC50
[11] = Homo sapiens, MDA-MB-468, 72 h, read-out: IC50

Row | Structure (SMILES) | IC50 [1, 7] [nM] | IC50 [2, 8] [nM] | IC50 [3, 9] [nM] | IC50 [4, 10] [nM] | logD hydrocarbon water ([5]; LogP) | IC50 [6, 11] [nM] | also measured
1 | CC[C@@]1(O)C(=O)OCc2c1cc1n(c2=O)Cc2c-1nc1cc(F)c(C)c3c1c2[C@H](NC(=O)[C@@H](O)C1CC1)CC3 [Compound 7] | 0.961 | 0.894 | < 0.01 | 0.801 | 1.7 | < 0.001 | –
2 | CC[C@@]1(O)C(=O)OCc2c1cc1n(c2=O)Cc2c-1nc1cc(F)c(C)c3c1c2[C@H](NC(=O)C1(CO)CCC1)CC3 [Compound 9] | 1.52 | 1.11 | 7.32 | 1.07 | 1.6 | 0.525 | –
3 | CC[C@@]1(O)C(=O)OCc2c1cc1n(c2=O)Cc2c-1nc1cc(F)c(C)c3c1c2[C@H](NC(=O)[C@@H](O)C(F)(F)F)CC3 [Compound 6] | 0.689 | 0.093 | 9.1 | 0.416 | 1.9 | – | –
4 | CC[C@@]1(O)C(=O)OCc2c1cc1n(c2=O)Cc2c-1nc1cc(F)c(C)c3c1c2[C@H](NC(=O)[C@H](O)C1CC1)CC3 [Compound 8] | 1.84 | 1.18 | < 0.01 | 1.1 | 1.8 | < 0.001 | –
5 | CC[C@@]1(O)C(=O)OCc2c1cc1n(c2=O)Cc2c-1nc1cc(F)c(C)c3c1c2[C@@H](NC(=O)[C@H](O)C1CC1)CC3 [Compound 16, reference compound] | – | – | – | – | 2.6 | – | –
6 | CC[C@@]1(O)C(=O)OCc2c1cc1n(c2=O)Cc2c-1nc1cc(F)c(C)c3c1c2[C@@H](NC(=O)[C@@H](C)O)CC3 [Compound 12, reference compound] | – | – | – | – | 2.5 | – | –
7 | CC[C@@]1(O)C(=O)OCc2c1cc1n(c2=O)Cc2c-1nc1cc(F)c(C)c3c1c2[C@@H](NC(=O)[C@@H](O)C1CC1)CC3 [Compound 15, reference compound] | – | – | – | – | 2.7 | – | –
8 | CC[C@@]1(O)C(=O)OCc2c1cc1n(c2=O)Cc2c-1nc1cc(F)c(C)c3c1c2[C@H](NC(=O)[C@H](C)O)CC3 [Compound 3] | 4.19 | 1.29 | 15 | 3.66 | 1.6 | 0.22 | –
9 | CC[C@@]1(O)C(=O)OCc2c1cc1n(c2=O)Cc2c-1nc1cc(F)c(C)c3c1c2[C@@H](NC(=O)[C@H](C)O)CC3 [Compound 11, reference compound] | – | – | – | – | 2.5 | – | –
10 | CC[C@@]1(O)C(=O)OCc2c1cc1n(c2=O)Cc2c-1nc1cc(F)c(C)c3c1c2[C@@H](NC(=O)[C@H](O)C(F)(F)F)CC3 [Compound 5] | 2.83 | 0.866 | 8.49 | 1.73 | 1.9 | 8.91 | –
11 | CC[C@@]1(O)C(=O)OCc2c1cc1n(c2=O)Cc2c-1nc1cc(F)c(C)c3c1c2[C@@H](NC(=O)[C@@H](O)C(F)(F)F)CC3 [Compound 14, reference compound] | – | – | – | – | 2.6 | – | –
12 | CC[C@@]1(O)C(=O)OCc2c1cc1n(c2=O)Cc2c-1nc1cc(F)c(C)c3c1c2[C@H](NC(=O)[C@@H](C)O)CC3 [Compound 4] | 3.1 | 0.92 | – | 2.85 | 1.9 | – | –
13 | CC[C@@]1(O)C(=O)OCc2c1cc1n(c2=O)Cc2c-1nc1cc(F)c(C)c3c1c2[C@@H](NC(=O)[C@H](O)C(F)(F)F)CC3 [Compound 13, reference compound] | – | – | – | – | – | – | LogP [5]: 2.6
14 | CC[C@@]1(O)C(=O)OCc2c1cc1n(c2=O)Cc2c-1nc1cc(F)c(C)c3c1c2[C@@H](NC(=O)CO)CC3 [Dxd, reference compound] | – | – | – | – | – | – | IC50 ([1]; A431, 3 days, read-out: IC50): 4.99 nM; IC50 ([2]; SW620, 3 days, read-out: IC50): 1.95 nM; IC50 ([3]; SK-BR-3, 3 days, read-out: IC50): 19.7 nM; IC50 ([4]; BxPc-3, 3 days, read-out: IC50): 3.97 nM; IC50 ([6]; MDA-MB-468, 3 days, read-out: IC50): 10.7 nM
15 | CC[C@@]1(O)C(=O)OCc2c1cc1n(c2=O)Cc2c-1nc1cc(F)c(C)c3c1c2[C@H](NC(=O)CO)CC3 [Compound 2] | – | – | – | – | – | – | IC50 ([1]; Homo sapiens, A-431, 72 h): 4.5 nM; IC50 ([2]; Homo sapiens, SW-620, 72 h): 2.89 nM; IC50 ([3]; Homo sapiens, SK-BR-3, 72 h): 1.78 nM; IC50 ([4]; Homo sapiens, BXPC-3, 72 h): 4 nM; logD hydrocarbon water ([5]; n-octane (oil) / water, read-out: LogP): 1.8; IC50 ([6]; Homo sapiens, MDA-MB-468, 72 h): 0.002 nM
